Values quoted from earlier work, collected in US20230172854A1 (UNIWERSYTET HUMANISTYCZNO-PRZYRODNICZY IM JANA DLUGOSZA W …, priority 2020, published 2023).

Details: estimated

Q: Which bioavailability does the source give for CCCCC(=O)N(Cc1ccc(-c2ccccc2-c2nnn[nH]2)cc1)[C@H](C(=O)O)C(C)C [valsartan] here?
A: Its bioavailability is 25%.
